The test system of one data set is Alternaria solani. As to the kind of experiment: Alternaria test (tomato)/protective. Format: in vivo. The note with it: young tomato plants sprayed, 1500 ppm, protective; evaluation 7 days following inoculation; 0% = control, 100% = no infestation.
Another data set has as its system Phytophthora infestans. It counts as in vivo. Particulars: young tomato plants sprayed, 1500 ppm, protective; evaluation 7 days following inoculation; 0% = control, 100% = no infestation.
Another data set relates to Plasmopara viticola. Briefly: Plasmopara test (grapevine)/protective. It counts as in vivo. Particulars: young grapevine plants sprayed, 250 ppm, protective; evaluation 6 days following inoculation; 0% = control, 100% = no infestation. An excerpt: (§1) An appropriate preparation of active compound is produced by mixing 1 part by weight of active compound with the stated amounts of solvent and emulsifier and diluting the concentrate with water to the desired concentration. To test for protective activity, young plants are sprayed with the preparation of active compound at the stated application rate. After the spray coating has dried on, the plants are inoculated with an aqueous spore suspension of Plasmopara viticola and then spend 1 day in an incubation cabin at approximately 20° C. and 100% relative humidity. Subsequently the plants are placed for 4 days in a greenhouse at approximately 21° C. and approximately 90% humidity. The plants are then moistened and placed in an incubation cabin for 1 day. After 6 days following inoculation, evaluation takes place. Here, 0% denotes an efficacy which corresponds to that of the control, whereas an efficacy of 100% means that no infestation is observed.

In the next data set the test system is Venturia inaequalis. As to the kind of experiment: Venturia test (apple)/protective. The note with it: young apple plants sprayed, 250 ppm, protective; evaluation 10 days following inoculation; 0% = control, 100% = no infestation. It counts as in vivo.
Text: as §1, with “conidia” for “spore”, “the causative organism of apple scab, Venturia inaequalis,” for “Plasmopara viticola”, “placed” for “placed for 4 days”, “humidity.” for “humidity. The plants are then moistened and placed in an incubation cabin for 1 day.”, “10 clays” for “6 days”

Another data set relates to Botrytis cinerea. Briefly: Botrytis test (bean)/protective. The note with it: young bean plants sprayed, 500 ppm, protective; size of infestation spots 2 days following inoculation; 0% = control, 100% = no infestation. It counts as in vivo. The text has this: An appropriate preparation of active compound is produced by mixing 1 part by weight of active compound with the stated amounts of solvent and emulsifier and diluting the concentrate with water to the desired concentration. To test for protective activity, young plants are sprayed with the preparation of active compound at the stated application rate. After the spray coating has dried on, 2 small pieces of agar on which Botrytis cinerea is growing are placed on each leaf. The inoculated plants are placed in a darkened chamber at approximately 20° C. and 100% relative humidity. After 2 clays following inoculation, the size of the infestation spots on the leaves is evaluated. Here, 0% denotes an efficacy which corresponds to that of the control, whereas an efficacy of 100% means that no infestation is observed.

Data set [1] can be described thus: log P determination by HPLC on reversed-phase column (EEC Directive 79/831 Annex V.A8). The note with it: reversed-phase C18 HPLC column, reversed-phase C 18, 43° C., acidic range pH 2.7, 0.1% aqueous formic acid/acetonitrile. It counts as physicochemical. As for the experimental part: The log P values reported in the preparation examples and tables above are determined in accordance with EEC Directive 79/831 Annex V.A8 by means of HPLC (High Performance Liquid Chromatography) on a reversed-phase column (C 18). Temperature: 43° C.
The determination with the LC-MS in the acidic range takes place at a pH of 2.7 using 0.1% aqueous formic acid and acetonitrile (containing 0.1% formic acid) as eluents: linear gradient from 10% acetonitrile to 95% acetonitrile.
Calibration takes place using unbranched alkan-2-ones (having 3 to 16 carbon atoms) of which the log P values are known (log P values determined on the basis of the retention times, by linear interpolation between two successive alkanones).

`Cc1c(C)c(=O)c2sc(C#N)c(C#N)sc=2c1=O` [Compound 43, 6,7-dimethyl-5,8-dioxo-5,8-dihydro-1,4-benzodithiine-2,3-dicarbonitrile] registered an Efficacy in % with Alternaria solani of 100%.
Same read-out and setting: under `COc1c(Cl)c(=O)c2sc(C#N)c(C#N)sc=2c1=O` [Compound 44, 6-chloro-7-methoxy-5,8-dioxo-5,8-dihydro-1,4-benzodithiine-2,3-dicarbonitrile] stands 100%.
Take `CC(C)(C)c1cc(=O)c2sc(C#N)c(C#N)sc=2c1=O` [Compound 45, 6-tert-butyl-5,8-dioxo-5,8-dihydro-1,4-benzodithiine-2,3-dicarbonitrile]: the Efficacy in % in the data set with Phytophthora infestans is 78%.
As to `Cc1c(C)c(O)c2c(c1O)SC(C#N)=C(C#N)S2` [Compound 47, 5,8-dihydroxy-6,7-dimethyl-1,4-benzodithiine-2,3-dicarbonitrile], the Efficacy in % with Plasmopara viticola was found to be 92%; in the data set with Venturia inaequalis, 100%; in the data set with Alternaria solani, 100%; in the data set on Phytophthora infestans it was 89%; with Botrytis cinerea, 100%. This compound displayed a chromatographic logP in data set [1] of 2.26.
For the compound `COc1c(O)c2c(c(O)c1Cl)SC(C#N)=C(C#N)S2` [Compound 48, 6-chloro-5,8-dihydroxy-7-methoxy-1,4-benzodithiine-2,3-dicarbonitrile], the Efficacy in % with Plasmopara viticola is 90%; with Venturia inaequalis, 100%; in the data set with Alternaria solani it was 100%; in the data set on Phytophthora infestans, 94%; with Botrytis cinerea, 97%. This compound returned a chromatographic logP in data set [1] of 2.19.
As to `CC(C)(C)c1cc(O)c2c(c1O)SC(C#N)=C(C#N)S2` [Compound 49, 6-tert-butyl-5,8-dihydroxy-1,4-benzodithiine-2,3-dicarbonitrile], the Efficacy in % is on record as 92% in the data set on Plasmopara viticola; 100% with Venturia inaequalis; 100% in the data set with Alternaria solani; 94% with Phytophthora infestans; 96% in the data set with Botrytis cinerea. Besides, the chromatographic logP in data set [1] was 2.95.

For the origin of these results see patent US9295255B2, “Use of dithiine derivatives in crop protection and the protection of materials” (Bayer Intellectual Property GmbH, priority 2010, dated 2016).
